Data set [1] has as its system O. sativa ACCase. Nature of the data set: Growth of Saccharomyces cerevisiae pseudodiploid acc1Δ strains carrying wild-type or mutant OsACCase plasmids, streaked onto plates with increasing concentrations of clethodim (Examples 5, 7, 10; Tables 8, 12). Format: cell-based, Oryza sativa. Also noted: key to growth, 0 mM clethodim / growth, 0.025 mM clethodim / growth, 0.1 mM clethodim / growth, 0.25 mM clethodim / growth, 0.5 mM clethodim / growth, 1 mM clethodim: ++ = Strong growth; + = Poor growth; − = No growth; key to relative growth phenotype, 0.5 mM clethodim / relative growth phenotype, 1 mM clethodim / relative growth phenotype, 2 mM clethodim / relative growth phenotype, highGal / relative growth phenotype, lowGal / relative growth phenotype, 0.05 mM clethodim / relative growth phenotype, 0.1 mM clethodim / relative growth phenotype, 0.25 mM clethodim: +++ high growth; ++ moderate growth; + low to negligible growth; (−) some cell debris, no growth; − no growth or cell debris. The conditions noted are these: for growth, 0 mM clethodim / growth, 0.025 mM clethodim / growth, 0.1 mM clethodim / growth, 0.25 mM clethodim / growth, 0.5 mM clethodim / growth, 1 mM clethodim: Table 12; for growth, 0 mM clethodim: plate with 0 mM clethodim; for growth, 0 mM clethodim / growth, 0.025 mM clethodim / growth, 0.1 mM clethodim / growth, 0.25 mM clethodim / growth, 0.5 mM clethodim / growth, 1 mM clethodim / relative growth phenotype, 0.05 mM clethodim / relative growth phenotype, 0.1 mM clethodim / relative growth phenotype, 0.25 mM clethodim / relative growth phenotype, 0.5 mM clethodim / relative growth phenotype, 1 mM clethodim / relative growth phenotype, 2 mM clethodim: galactose 0.01%; for growth, 0.025 mM clethodim: plate with 0.025 mM clethodim; for growth, 0.1 mM clethodim / relative growth phenotype, 0.1 mM clethodim: plate with 0.1 mM clethodim; for growth, 0.25 mM clethodim / relative growth phenotype, 0.25 mM clethodim: plate with 0.25 mM clethodim; for growth, 0.5 mM clethodim / relative growth phenotype, 0.5 mM clethodim: plate with 0.5 mM clethodim; for growth, 1 mM clethodim / relative growth phenotype, 1 mM clethodim: plate with 1 mM clethodim; for clethodim tolerance compared to the wild-type (wt) control strain: Example 5; for relative growth phenotype, 0.05 mM clethodim: plate with 0.05 mM clethodim; for relative growth phenotype, 2 mM clethodim: plate with 2 mM clethodim; for relative growth phenotype, highGal / relative growth phenotype, lowGal: yeast acc1Δ strain with OsACCase plasmid, no clethodim; for relative growth phenotype, highGal: high galactose plate; for relative growth phenotype, lowGal: low galactose plate. From the text:
Mutations at position N2097S and V2098A were combined to determine if point mutations at both positions gave increased resistance compared to either single point mutation. Each of these respective mutations (N2097S, V2098A and N2097S/V2098A) were generated by standard methods and introduced into a Saccharomyces cerevisiae pseudodiploid acc1Δ strain with a plasmid containing wild-type O. sativa ACCase gene. Once each of these mutations were introduced by recombination mediated mutagenesis, the OsACCase wild-type plasmid was removed, and mutation strains were confirmed by sequencing. The three strains, along with a series of controls including a WT strain (negative control), an I1781L mutant strain, and a D2078G mutant strain (positive control), were streaked onto plates with increasing concentrations of clethodim. […] These observations argue that N2097S is an enhancer of V2098A tolerance.
Edits at position S1784N and A1785G were combined to determine if point mutations at both of these two positions gave increased resistance compared to either single point mutation. Each of these respective mutations (S1784N, A1785G and S1784N/A1785G) were generated by standard methods and introduced into a Saccharomyces cerevisiae pseudodiploid acc1Δ strain with a plasmid containing wild-type O. sativa ACCase gene. Once each of these mutations were introduced by recombination mediated mutagenesis, the OsACCase wild-type plasmid was removed, and mutation strains were confirmed by sequencing. The three strains, along with a series of controls including a WT strain (negative control), an I1781L mutant strain, a D2078G mutant strain (positive control), and a V2075L mutant strain were streaked onto plates with increasing concentrations of clethodim.
Each of these respective mutations (D2078G, P2083T, D2078G/P2083T) were generated by standard methods and introduced into a Saccharomyces cerevisiae pseudodiploid acc14 strain with a plasmid containing the wild-type O. sativa ACCase gene. Once plasmids bearing each of these mutations, introduced using recombination-mediated mutagenesis, the OsACCase wild-type plasmid was removed, and strains bearing each mutant plasmid were confirmed by sequencing. The three strains, along with a series of controls including a wild-type strain (negative control), an I1781L mutant strain (medium control), and a pre-existing D2078G mutant strain (positive control) were streaked onto plates with increasing concentrations of clethodim.

Data set [2] has as its system rice Oryza sativa. Nature of the data set: Regenerated edited rice shoots established in soil, greenhouse: plant growth, herbicide tolerance, fertility (Example 9). It counts as in vivo. The source says:
The D2078G mutation was introduced into a native rice Oryza sativa ACCase gene utilizing PEG delivery of CRISPR-Cas and GRONs into protoplasts. Examples of target spacer sequences for sgRNA targeting the rice ACCase gene are shown, but not limited to, those listed in the below Table 9. Sequence information for exemplary GRONs is shown, but not limited to those listed in the below Table 10. Rice protoplasts were isolated from cell suspension cultures initiated from Cypress mature seed-derived embryogenic calli. A non-coding D2078G GRON with RNP (CRISPR-Cas9 protein plus gRNA complex) was introduced into rice protoplasts using PEG-mediated delivery method. Following PEG treatment, protoplasts were cultured in liquid medium and kept stationary in the dark at 26±2° C. for 2 weeks. After 2 weeks, culture plates were gently scraped to release the divided protoplasts from the bottom of the plates and added equal volume of fresh liquid medium. These cultures were transferred on a rotatory shaker and incubated in the dark at 26±2° C. […]
(§1) The results of herbicide rate tolerance field trials of the D2078G/P2083T line can be seen below in Table 11. The edited plants were sprayed with clethodim, and plant injury was visually scored at (7) seven, (14) fourteen, and (28) days after application of the herbicide (“DAA”) on a 0-100% percentage scale for chlorosis of newest leaf-tips and growing points.

In data set [3] the test system is D2078G/P2083T line. Format: in vivo, Oryza sativa. The conditions noted are these: sprayed with clethodim.
Source text: as §1

Data set [4] relates to D2078G/P2083T edited rice line. It counts as in vivo, Oryza sativa. The conditions noted are these: all clethodim spray rates, nine environments. From the text: The clethodim herbicide chosen contained 2.0 pounds active ingredient per gallon. Using a randomized completed block design with three replicates, four clethodim spray rates (5.76, 8.30, 12.10 and 16.00 fluid ounces per acre) were compared to an untreated control (“UTC”). Phytotoxicity rates to access crop response were visually scored (7) seven, (14) fourteen and (28) twenty-eight days after clethodim application (“DAA”) using a 0-100% percentage chlorosis scale. All plots were maintained weed free using additional herbicides tolerant by all rice lines. Yield was collected using a research plot combine to harvest the small plot, and yields were standardized to 12.5% moisture before being converted to a percentage of the untreated control.

For data set [5], the system named is rice (Oryza sativa) plastidal ACCase. The experiment in a line: Clethodim tolerance of rice ACCase mutations, yeast complementation assay (Examples 1-3). Format: cell-based. The conditions noted are these: for clethodim tolerance: ACCase mutation tested with the herbicide clethodim. The source says:
Joachimiak M. et al Proc Natl Acad Sci U.S.A. 1997 Sep. 2; 94 (18): 9990-5 and WO/2013/074524 and WO/2013/074524 each describe methods to complement a yeast (Saccharomyces cerevisiae) strain lacking the native acc1 gene with either a wt or mutated form of a chimeric plastidal ACCase gene from a plant such as rice (Oryza sativa). Methods to introduce one or more mutations listed herein into the chimeric ACCase gene and subsequently complement the acc1 lacking yeast strain are well known by an individual skilled in the art. In the art assays are known for measuring tolerance of a mutated plant ACCase gene versus a herbicide that is a member of the aryloxyphenoxypropanoate, cyclohexanedione, and/or phenylpyrazoline families of herbicides such as clethodim, sethoxydim, fluazifop, haloxyfop, quizalofop, and pinoxaden (Joachimiak M. et al Proc Natl Acad Sci U.S.A. 1997 Sep. 2; 94 (18): 9990-5 and WO/2013/074524).
A library of random mutations in the rice (Oryza sativa) plastidal ACCase gene was generated and screened for clethodim tolerant clones using a yeast complementation assay.

The conditions of data set [6]: Cha et al., Pesticide Biochemistry and Physiology 111 (2014) 7-13; cited from earlier work.
Where [7] appears, read: plates with increasing clethodim, 0.01% galactose.
Setting [8] is: Example 10, highest concentration tested 1 mM, 0.01% galactose.

Regarding “D2078G/P2083T: double mutant ACCase; yeast strain and edited rice line”, in data set [1], the “growth, 0 mM clethodim” value is “++”; the “growth, 0.025 mM clethodim” value is reported as “++”; the “growth, 0.1 mM clethodim” value is listed as “++”; the “growth, 0.25 mM clethodim” value is given as “++”. In data set [1], the “growth, 0.5 mM clethodim” value is listed as “++” and the “growth, 1 mM clethodim” value is recorded as “+”. In addition, in data set [2], the herbicide tolerance entry is reported as “herbicide tolerance”. Further, the meristem necrosis entry in data set [3] was “limited meristem necrosis except at the highest rates of herbicide application”. For the same substance, the yield result in data set [3] (compared to the untreated control plants) is listed as “increased yield”. Further, the plant injury entry in data set [3] (visually scored 7, 14, 28 DAA) is on record as “low plant injury”. Further, in data set [4], the plant injury result is given as “low plant injury” and the yield result was “good yield”.

Turning to “I1781L: mutated ACCase, numbering per SEQ ID NO: 2; moderate-resistance control”, the clethodim tolerance result in data set [5] is on record as “produces tolerance”. In data set [1] (setting [7]), the “clethodim tolerance compared to the wild-type (wt) control strain” value is reported as “did produce tolerance” and the “growth on clethodim plates (in words)” value is on record as “consistent with moderate resistance”. Further, in data set [1] (setting [8]), the “clethodim concentrations on which the strain grew poorly” value was “up to 0.25 mM” and the “clethodim concentrations on which the strain grew well” value is on record as “up to 0.1 mM”. In data set [1], the “growth, 0 mM clethodim” value is “++”; the “growth, 0.025 mM clethodim” value is reported as “++”; the “growth, 0.1 mM clethodim” value is given as “++”; the “growth, 0.25 mM clethodim” value is reported as “+”. Further, in data set [1], the “growth, 0.5 mM clethodim” value is given as “−”; the “growth, 1 mM clethodim” value is given as “−”; the “relative growth phenotype, 0.05 mM clethodim” value is listed as “+++”; the “relative growth phenotype, 0.1 mM clethodim” value is on record as “+++”. In data set [1], the “relative growth phenotype, 0.25 mM clethodim” value is listed as “++”; the “relative growth phenotype, 0.5 mM clethodim” value is “(−)”; the “relative growth phenotype, 1 mM clethodim” value was “(−)”; the “relative growth phenotype, 2 mM clethodim” value is “(−)”. Besides, in data set [1], the “relative growth phenotype, highGal” value is “+++” and the “relative growth phenotype, lowGal” value is “+++”.

For the substance “V2075L: mutated ACCase, numbering per SEQ ID NO: 2”, in data set [5], the clethodim tolerance entry is on record as “measurable clethodim tolerance”. In data set [1], the “relative growth phenotype, 0.05 mM clethodim” value is on record as “+++”; the “relative growth phenotype, 0.1 mM clethodim” value is recorded as “+++”; the “relative growth phenotype, 0.25 mM clethodim” value is on record as “+++”; the “relative growth phenotype, 0.5 mM clethodim” value is “+++”. In data set [1], the “relative growth phenotype, 1 mM clethodim” value is listed as “+”; the “relative growth phenotype, 2 mM clethodim” value is given as “(−)”; the “relative growth phenotype, highGal” value was “+++”; the “relative growth phenotype, lowGal” value is recorded as “+++”. Also, in data set [1] (setting [7]), the “growth on clethodim plates (in words)” value was “grew to a similar extent as the V2075L mutation”.

With “N2097D: mutated ACCase, numbering per SEQ ID NO: 2”, the clethodim tolerance result in data set [5] is on record as “neither the N2097S nor the N2097D single mutations provide detectable clethodim tolerance”. Also, the “effect on clethodim tolerance when combined with D2078G, V2075L or V2098A” value in data set [5] (combined with either D2078G, V2075L or V2098A) is “produces opposing results”. Besides, the “tolerance to the fluazifop herbicide” value in data set [6] was “associated with tolerance to the fluazifop herbicide”.

For “D2078G: mutated ACCase, numbering per SEQ ID NO: 2; positive control strain; also edited rice shoots”, the clethodim tolerance entry in data set [5] was “measurable clethodim tolerance”. For the same substance, the “clethodim tolerance compared to the wild-type (wt) control strain” value in data set [1] (setting [7]) is listed as “did produce tolerance”. Further, the “clethodim concentrations on which the strain grew” value in data set [1] (Example 7, plates with increasing clethodim, 0.01% galactose) was “up to 1.0 mM”. In data set [1], the “growth, 0 mM clethodim” value is given as “++”; the “growth, 0.025 mM clethodim” value is recorded as “++”; the “growth, 0.1 mM clethodim” value is listed as “++”; the “growth, 0.25 mM clethodim” value was “++”. Moreover, in data set [1], the “growth, 0.5 mM clethodim” value is on record as “++”; the “growth, 1 mM clethodim” value is “+”; the “relative growth phenotype, 0.05 mM clethodim” value is “+++”; the “relative growth phenotype, 0.1 mM clethodim” value is recorded as “+++”. For the same substance, in data set [1], the “relative growth phenotype, 0.25 mM clethodim” value is given as “+++”; the “relative growth phenotype, 0.5 mM clethodim” value is recorded as “+++”; the “relative growth phenotype, 1 mM clethodim” value is given as “+”; the “relative growth phenotype, 2 mM clethodim” value was “(−)”. In addition, in data set [1], the “relative growth phenotype, highGal” value was “+++” and the “relative growth phenotype, lowGal” value is listed as “+++”. Also, the herbicide tolerance result in data set [2] is listed as “strong herbicide tolerance”.

“V2098A: mutated ACCase, numbering per SEQ ID NO: 2”: the clethodim tolerance result in data set [5] was “measurable clethodim tolerance”. In addition, the “clethodim tolerance compared to the wild-type (wt) control strain” value in data set [1] (setting [7]) is reported as “did produce tolerance”.

The record behind these values is patent publication US20260242768A1, “ACETYL-COENZYME A CARBOXYLASE MUTANTS” (CIBUS US LLC, priority 2023, published 2026).
